Assays:
[1] = system: Human fibroblast M1 cells; conditions: previously determined; cited from earlier work
CD11c+DCs = test: IL-23 and IL-6 production in LPS-stimulated bone marrow-derived CD11c+DCs (ELISA); format: cell-based, mouse; conditions: LPS-treated DCs (100 ng/ml LPS)
Method: DBA/1 bone marrow-derived CD11c+DCs were cultured with or without 100 ng/ml LPS in the presence or absence of ISL-positive or ISL-negative 15mer peptides (50 μg/ml). Supernatants were collected at different time points and assayed for IL-23 and IL-6 content by ELISA.
(§1) To determine the rate of NO production, cells were loaded with 20 μM of the fluorescent NO probe 4,5-diaminofluorescein diacetate (DAF-2DA) and the fluorescence level was recorded every 5 minutes over a period of 500 minutes using a Fusion αHT system (PerkinElmer Life Sciences) at an excitation wavelength of 488 nm and emission wavelength of 515 nm. To determine IDO enzymatic activity, the generation of its product, kynurenine was measured (Takikawa et al. 1988. J Biol Chem 263:2041-2048.; herein incorporated by reference in its entirety). Cytokine concentrations were measured in cell culture supernatants using a Luminex platform (Millipore Corporation, Danvers, Mass.). In some experiments, cytokines were determined using ELISA (Quantikine®, R&D Systems, Minneapolis, Minn.) following the manufacture's instruction.

Th17 cells = test: ISL polarizing effect in vivo (CII in CFA immunization); parameters: species or system DBA/1 mice
Method: (A) DBA/1 mice were immunized with CII in CFA in the presence of PBS, 65-79*0401 or 65-79*0402. On day 7, cells from draining lymph nodes were isolated, cultured for 6 hours with PMA, Ionomycin and Brefeldin A and then stained with anti-mouse CD4, IL17A and IFN-γ as above. On the left: Representative dot plots showing percentages of IL17A+ and IFN-γ+ cells obtained from gated CD4+ cells. On the right, bar graphs showing results as mean±SD of duplicate experiments. (B) DBA/1 and CII-TCR Tg mice were immunized as in (A). On day 7, splenic cells were isolated and cultured with the synthetic peptide CII260-267 (5 μg/ml). Supernatants were collected every 24 hours and assayed for IL-17 levels by ELISA.
Mice were injected subcutaneously in the footpad with 100 μg of chicken collagen type II (CII) (Chondrex, Inc, Redmond, Wash.) emulsified in CFA (4 mg/ml). The inoculums contained 10 μg of either ISL-positive 65-79*0401 or ISL-negative 65-79*0402 ligands in PBS, or an equal volume of PBS alone. Animals were sacrificed 7 days after immunization. For Th17 quantification studies, inguinal and popliteal lymph nodes were collected and single cell suspensions were prepared. Unfractionated lymph node cells were cultured with PMA, Ionomycin and Brefeldin A for 6 hours as above. Cells were stained with FITC anti-mouse CD4 or isotype controls, followed by fixation and permeabilization using a Cytofix-Cytoperm™ kit. After permeabilization, intracellular staining was performed using PE-conjugated anti-mouse IL17A and APC-conjugated anti-mouse IFN-γ and cells were analyzed by flow cytometry as above. To measure IL-17 production, splenocytes from mice immunized as above were stimulated in vitro with 5 μg of CII259-273 peptide. At different time points thereafter, supernatants were collected and assayed for IL-17 by ELISA as above.

NO signaling in DC = test: NO production in bone marrow-derived CD11c+ dendritic cells (DAF-2DA); format: cell-based, mouse; conditions: 100 μg/ml 15mer peptide; Balb/c DC; compared to ISL-negative peptides
Method: Bone marrow cells from Balb/c (A and B) or DBA/1 (C and D) mice were differentiated into DCs in culture with GM-CSF ([…]) and IL-4 ([…]). CD11c+ DCs were purified using magnetic beads with >95% purity. DCs were then incubated with SE-positive (65-79*0401 or 65-79*0404), or with SE-negative (65-79*0402 or 65-79*0403) 15mer peptides and NO production was measured as described below. The results are expressed as mean±SEM fluorescence units (FU), or FU per minute. *p<0.01 compared to all ligand controls.
DCs play a key role in immune regulation. […] DC cells were incubated over time with 100 μg/ml of ISL-positive or -negative 15mer peptides, and NO production was measured.
as §1, with “In some experiments, cytokines were determined using ELISA (Quantikine®, R&D Systems, Minneapolis, Minn.) following the manufacture's instruction.” left out

H-KDLLEQKRAAVDTYC-NH2 [65-79*0401]
optimal concentration for NO production [1]: 50 µM
IL-23 production (CD11c+DCs): augmented
Th17 abundance in draining lymph nodes (Th17 cells; 10 μg co-administered with CII in CFA, footpad, day 7): dramatically increased
CII-stimulated IL-17 production by splenocytes (Th17 cells; compared to mice co-immunized with 65-79*0402): significantly more robust
frequency of Th1 (IFNγ-positive) cells (Th17 cells; draining lymph nodes, day 7): no change
NO production (NO signaling in DC): much more robust NO production
